# Laboratory results reported in patent US20200046802A1, “THERAPEUTIC METHOD USING TOLEROGENIC PEPTIDES” (APITOPE INTERNATIONAL NV, priority 2017, published 2020).
# Ends that are not written are not given here.
# Experiments:
# [1] = system: subjects with Graves' disease; experiment: Open label upward titration study of ATX-GD-59, safety; format: in vivo, human; details: first 5 patients
# Procedure: (§1) Safety and proof of principle study of ATX-GD-59 in male and female subjects with Graves' disease not currently treated with anti-thyroid therapy: An Open label study, with an upward titration over five dose levels administered by Intradermal injection.
# (§2) There was an upward titration over five dose levels (injection(s) of 25, 50, 100, 400 and 800 μg) of ATX-GD-59 followed by injection(s) of 800 μg injected on five further occasions. All doses were based on the total peptide.
# (§3) All doses were administered by intradermal injection at intervals of 14+/−3 days.
# Subjects will be observed in the clinic for at least two hours after administration of the study drug and vital signs will be recorded at 15 minute intervals for the first hour and 30 minute intervals for the second hour. […]
# Safety endpoints, which will be evaluated on an ongoing basis up to Week 22, are: • Injection site reactions as reported by the subjects in the diary card. • Occurrence of treatment related adverse events (Adverse Events), Serious Adverse Events, and laboratory abnormalities compared to baseline. • Results from the physical examination, and vital signs (reported on an ongoing basis and compared to baseline/screening). • Premature termination and reasons for premature termination from treatment and/or the study.
# [2] = system: subjects with Graves' disease; experiment: Open label upward titration study of ATX-GD-59, TSHR antibody and free T3 levels; format: in vivo, human
# Procedure: as §1, §2, §3
# Criteria for Evaluation of the Secondary Objectives: • TSHR antibody levels. • Ratio of stimulatory vs inhibitory TSHR antibodies. • Free T3, free T4 and TSH serum levels.
substance,measurement,setting,value
ATX-GD-59: comprises the RNB-5D-K1 and RNB-9B peptides of SEQ ID NOs: 5 and 6; lyophilised equimolar mixture of two peptides (chain 1 KKKKYVSIDVTLQQLESHKKK; chain 2 GLKMFPDLTKVYSTD; not fully specified),safety data analysed by DMC,[1],No safety issues were identified
same,"T3, % change from SD1 to W18",[2]; Subject 3101,13.60%
same,"TRAb, % change from SD1 to W18",[2]; Subject 3101,3.58%
same,"TSI, % change from SD1 to W18",[2]; Subject 3101,−30.32%
same,"T3, % change from SD1 to W18",[2]; Subject 3301,21.4%
same,"TRAb, % change from SD1 to W18",[2]; Subject 3301,16.60%
same,"TSI, % change from SD1 to W18",[2]; Subject 3301,−4.48%
same,"T3, % change from SD1 to W18",[2]; Subject 3402,−17.72%
same,"TRAb, % change from SD1 to W18",[2]; Subject 3402,−61.13%
same,"TSI, % change from SD1 to W18",[2]; Subject 3402,−57.89%
same,"T3, % change from SD1 to W18",[2]; Subject 3501,−22.39%
same,"TRAb, % change from SD1 to W18",[2]; Subject 3501,−30.33%
same,"TSI, % change from SD1 to W18",[2]; Subject 3501,−32.45%
same,"T3, % change from SD1 to W18",[2]; Subject 3503,−45.33%
same,"TRAb, % change from SD1 to W18",[2]; Subject 3503,−64.51%
same,"TSI, % change from SD1 to W18",[2]; Subject 3503,−61.71%
same,stimulating TRAB levels (TSI),[2]; first 5 subjects,All subjects had decrease
same,subjects with decreases in T3 and TRAB,[2]; first 5 subjects,Three of 5
